Series [1] has as its target OXA-98 (Acinetobacter baumannii, UniProt D0C7W4). As to the kind of experiment: biochemical. Details: species or system A. baumannii ATCC 19606. How it is done: (§1) Enzyme concentrations were 20 nM for AmpC and SHV-1, and 50 nM for OXA-98. Quartz cuvette (FireflySci Inc., Northport, NY) with 1 cm length path and 2 mm inside width was used with an Ultrospec 2100 Pro (Biochrom, Harvard Bioscience Inc., USA) to acquire the kinetic measures. […] The following extinction coefficients (Δε) and wavelengths (λ) were used:
(§2) The steady-state parameters (Km and Kcat) were determined by plotting the initial velocity against substrate concentrations (Michaelis–Menten curve). The Kcat was measured using the Vmax (μM/sec) divided by the total enzyme concentration and the catalytic efficiency was further calculated (Kcat/Km). SHV-1 parameters were determined with three Michaelis–Menten curves of at least seven substrate concentrations, while OXA-98 and AmpC were duplicates of curves of at least seven substrate concentrations. […] Initial velocities were measured at room temperature (25 °C). The Vmax and Km were calculated using least squares fit regression in GraphPad version 10.2.2. Ki was measured using a derivative of IC50 with an adaptation of the Cheng–Prusoff equation[55]. […] The corrected Ki was calculated using this formula: Kicorrected=Ki(observed)/1+S/KmNCF

A short description of series [2]: Antibiotic stability in medium without bacteria. The source says:
This method used ultra-performance liquid chromatography-mass spectrometry (UPLC-MS) to measure the amount of test antibiotics remaining in bacterial culture supernatants over time as a means to measure antibiotic uptake by bacterial cells. The method assumes that all antibiotic molecules in the medium (i.e., those that we measured by UPLC-MS) are not bound to the PBP targets in the periplasm, whereas it is assumed that the bactericidal effect (ΔCFU/mL) is correlated to antibiotic uptake and binding to PBPs. The test strain E. coli MC4100 was cultivated overnight in 10 mL of MHBCA or ID-MHBCA at 37 °C with shaking (200 rpm). The next day, the overnight culture was diluted in fresh preheated medium to obtain an OD600 of ~0.7 in MHBCA or ID-MHBCA. The culture was further diluted 1:2 in MHBCA or ID-MHBCA (growth controls), or in MHBCA or ID-MHBCA containing the freshly prepared test antibiotic (2 × the final concentration) to obtain an initial OD600 of ~0.35 (corresponding to 8.5 log10 CFU/mL) and 200 μM of antibiotic (final concentration). Antibiotics were also added to preheated MHBCA or ID-MHBCA without bacteria to control for the stability of the molecules in the medium over time. The moment bacteria were put in contact with the test antibiotic corresponded to the first time point (0 h). For each time point thereafter, 200 μL of sample from both assay and stability test tubes were retrieved and centrifuged at 4 °C for 5 min at 8000 × g. All supernatants were filtered (0.2 μm) and flash frozen in liquid nitrogen for transport. After melting, 2 μL of the samples were injected in the UPLC-MS before the analysis. In parallel, 20 μL of assay and growth control tubes were serially diluted in 96-well plates. Ten μL of each dilution was spotted on TSA plates and incubated for 24 h at 37 °C for CFU counting.
For analysis, the determined concentration in the supernatant was adjusted for the degradation of the molecules measured in the stability control tests for each time point. The final net antibiotic concentration in the medium was calculated at each time point by adding the concentration caused by degradation to the concentration of the test antibiotic measured in the assay tubes containing bacteria. […] A second control was added for the β-lactam LOR and CEF to verify the impact of metabolic waste on the stability of the molecules. The supernatant from the 4-h growth control without antibiotic was collected by filtration 0.2 µm. LOR and CEF were then added to the filtrated supernatant at 200 µM, and degradation was measured after 3 h.

The target in series [3] is AmpC (PDC-5) (Pseudomonas aeruginosa, UniProt P24735, R79Q/T105A). Nature of the series: biochemical. It is filed as biochemical, P. aeruginosa ATCC 27853. How it is done:
The purification of AmpC from the culture supernatant obtained above was conducted as described in the Catwright and Waley protocol[52] using an Affi-gel 10 matrix (Bio-Rad, Hercules, CA, USA) loaded in a column (G-Bioscience, St-Louis, MO, USA). First, the resin was washed with cold deionized water. The resin was then collected and mixed with 20 mL of the 3-aminophenylboronic acid solution (1 M KHCO3 containing 2 g of 3-aminophenyl boronic acid and 2 g of sorbitol) at 4 °C for 1 h, and the pH was maintained at 8 with solid KHCO3. The mixture was loaded onto the column and washed with 10 column volumes of 1 M NaCl/0.5 M sorbitol (pH 7), followed by 10 column volumes of 0.5 M borate (pH 7), and then 10 column volumes of the loading buffer (20 mM triethanolamine HCl/0.5 M NaCl, pH 7). The sample was dialyzed in the loading buffer before being loaded onto the column. The column was washed with the loading buffer until no absorbance was measured at OD280. AmpC was eluted in fractions of 1 mL with 0.5 M borate/0.5 M NaCl pH 7. […] The purity was visualized on a 10% bis-acrylamide gel. Only pure fractions showing a single band at 40 kDa were pooled together and then dialyzed at 4 °C in a KP buffer 0.05 M pH 7 (see Fig. S2). The protein concentration was determined with a Bradford protein reagent (Bio-Rad).
as §1, §2

Read-outs that look alike come from different tables or passages of the source.

The Km is the substrate concentration at which the rate is half of its maximum. The Ki is the equilibrium dissociation constant of an inhibitor or competing ligand from its target. A higher Ki goes with a looser hold on the target.

Chain of AmpC (PDC-5) (P24735 27-397 R79Q/T105A): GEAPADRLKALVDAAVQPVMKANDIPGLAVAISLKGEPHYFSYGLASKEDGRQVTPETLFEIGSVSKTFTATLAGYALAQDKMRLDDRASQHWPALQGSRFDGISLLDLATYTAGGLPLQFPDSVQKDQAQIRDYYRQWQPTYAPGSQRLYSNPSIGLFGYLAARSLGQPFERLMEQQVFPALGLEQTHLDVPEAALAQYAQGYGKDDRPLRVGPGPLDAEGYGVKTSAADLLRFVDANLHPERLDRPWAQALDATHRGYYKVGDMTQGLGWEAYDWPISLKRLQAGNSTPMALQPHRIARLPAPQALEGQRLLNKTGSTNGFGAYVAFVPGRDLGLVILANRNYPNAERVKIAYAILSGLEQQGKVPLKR
Chain of OXA-98 (D0C7W4 entry or part of it): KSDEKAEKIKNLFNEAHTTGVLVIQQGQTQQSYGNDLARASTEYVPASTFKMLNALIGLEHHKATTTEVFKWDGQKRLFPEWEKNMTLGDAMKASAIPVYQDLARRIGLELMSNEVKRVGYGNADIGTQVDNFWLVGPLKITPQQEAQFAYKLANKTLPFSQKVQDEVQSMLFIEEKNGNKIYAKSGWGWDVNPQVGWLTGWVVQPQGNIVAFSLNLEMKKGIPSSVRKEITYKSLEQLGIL

As for `O=C(CCC(=O)N(CCCCNC(=O)c1cccc(O)c1O)CCCNC(=O)c1cccc(O)c1O)NCCCCCN(O)C(=O)CCCC(=O)NC(C(=O)NC1C(=O)N2C(C(=O)O)=C(Cl)CSC12)c1ccccc1` (stereo not drawn) [MCEF, mixed ligand bis-catechol-mono-hydroxamate-cefaclor], the “hydrolysis by OXA-98” value in series [1] is listed as “No hydrolysis”. Further, the “percentage of antibiotic degradation” value in series [2] (2 h, ID-MHBCA) is recorded as 5%; in series [2] (2 h, MHBCA) it was 12%; in series [2] (4 h, ID-MHBCA), 18%; in series [2] (4 h, MHBCA) it was 25%; in series [2] (6 h, ID-MHBCA), 22%; in series [2] (6 h, MHBCA) it was 29%. The “percentage of antibiotic degradation” value is 31% in series [2] (8 h, ID-MHBCA); 41% in series [2] (8 h, MHBCA); 29% in series [2] (10 h, ID-MHBCA); 38% in series [2] (10 h, MHBCA); 43% in series [2] (24 h, ID-MHBCA); 54% in series [2] (24 h, MHBCA).

On to `N[C@@H](C(=O)N[C@@H]1C(=O)N2C(C(=O)O)=C(Cl)CS[C@H]12)c1ccccc1` [CEF, cefaclor, reference compound], for which the “hydrolysis by OXA-98” value in series [1] is listed as “No hydrolysis”. In addition, the “percentage of antibiotic degradation” value in series [2] (2 h, 200 μM) stood at 14%.

Take `O=C(CN(CCCCNC(=O)c1cccc(O)c1O)C(=O)c1cccc(O)c1O)NC(C(=O)NC1C(=O)N2C(C(=O)O)=C(Cl)CCC12)c1ccccc1` (stereo not drawn) [BLOR, bis-catechol (azotochelin)-loracarbef]: in series [3] (n = 2), the “AmpC (PDC-5) Vmax” value was 11 ± 1 µmol·mg/min. For the same compound, in series [1], the “hydrolysis by OXA-98” value is “No hydrolysis”. The “percentage of antibiotic degradation” value in series [2] (2 h, ID-MHBCA) is “NDD”; in series [2] (2 h, MHBCA) it was 6%; in series [2] (4 h, ID-MHBCA), 3%; in series [2] (4 h, MHBCA) it was 15%; in series [2] (6 h, ID-MHBCA) it was 6%; in series [2] (6 h, MHBCA), 15%. Moreover, the “percentage of antibiotic degradation” value in series [2] (8 h, ID-MHBCA) came out at 14%; in series [2] (8 h, MHBCA) it was 26%; in series [2] (10 h, ID-MHBCA), 9%; in series [2] (10 h, MHBCA), 22%; in series [2] (24 h, ID-MHBCA) it was 14%; in series [2] (24 h, MHBCA) it was 28%.

For the compound `N[C@@H](C(=O)N[C@@H]1C(=O)N2C(C(=O)O)=C(Cl)CC[C@H]12)c1ccccc1` [LOR, loracarbef, reference compound], the Km in series [3] (Michaelis–Menten curves, n = 2, read-out: AmpC (PDC-5) Km) worked out at 22 ± 0.5 µM. The “AmpC (PDC-5) Vmax” value in series [3] (n = 2) was 15 ± 0.3 µmol·mg/min. Moreover, the “hydrolysis by OXA-98” value in series [1] is “No hydrolysis”. The “percentage of antibiotic degradation” value in series [2] is “NDD”.

Regarding `CC1(C)S[C@@H]2[C@H](NC(=O)[C@H](N)c3ccccc3)C(=O)N2[C@H]1C(=O)O` [AMP, ampicillin, reference compound], the Ki in series [3] amounted to 15 ± 1 µM.

Consider `CC1(C)SC2C(NC(=O)C(NC(=O)CN(CCCCNC(=O)c3cccc(O)c3O)C(=O)c3cccc(O)c3O)c3ccccc3)C(=O)N2C1C(=O)O` (stereo not drawn) [BAMP, bis-catechol (azotochelin)-ampicillin], for which the Ki in series [3] was 19 ± 1 µM; in series [1], 499 ± 4 µM.
